The text below walks through data of US9289462B2, “Method for medical treatment utilizing glutathione” (priority 2008, dated 2016).

Like-named read-outs stand apart in the source and are kept apart here.

Data set [1] relates to patients with acute pancreatitis. Conditions: previous studies, cited from earlier work; for benefit in patients with acute pancreatitis: administration of n-acetylcysteine together with the antioxidants selenium and vitamin C.
The test system of data set [2] is patient with acute pancreatitis, abdominal pain. Put plainly: Example 2: pain score of a patient with acute pancreatitis after a single dose of intravenous reduced L-glutathione. Type of data set: in vivo, human.
Source text: (§3) The patient improved substantially over a several week period on nonspecific supportive therapy but continued to require pain medication intermittently.
Data set [3] has as its system amylase and lipase levels. Particulars: Example 2; for Lipase: Normal 8-57; for Amylase: Normal 30-110.
Source text: as §3
In data set [4] the test system is patient with constant abdominal pain secondary to chronic pancreatitis. Conditions: for Pain Score: GSH (1 gm) IV. The text has this: (§1) A patient who has experienced over 5 years of constant abdominal pain secondary to chronic pancreatitis is given intravenous reduced L-glutathione therapy.
Data set [5] has as its system amylase and lipase levels. Conditions: Example 1; for Lipase: Normal 8-57; for Amylase: Normal 30-110.
Source text: as §1

The subject of data set [6] is amylase, lipase and C-reactive protein levels. Conditions: Example 3; for CRP: Normal 0-7.48; for Lipase: Normal 8-57; for Amylase: Normal 30-110. An excerpt:
(§2) A person had experienced 5 weeks of increasing back and abdominal pain prior to first dose of intravenous L-glutathione. […] The patient elected to undergo intravenous L-glutathione reduced therapy for pancreatitis.

Data set [7] relates to patient with back and abdominal pain, pancreatitis. Conditions: for Pain Score: GSH (1 gm).
Source text: as §2

The conditions of data set [8]: known value; cited from earlier work.
Where [9] appears, read: May 7, 2008 (date of GSH infusion).
[10] abbreviates: Sep. 14, 2007 (before first GSH infusion of Sep. 28, 2007).
Setting [11] is: Sep. 28, 2007 (date of first GSH infusion).
The mark [12] stands for this setting: Jun. 3, 2008 (date of first GSH dose).
The mark [13] stands for this setting: May 22, 2008 (before first GSH dose of Jun. 3, 2008).
Setting [14] is: May 30, 2008 (before first GSH dose).

As to `CC(=O)N[C@@H](CS)C(=O)O` [n-acetylcysteine, reference compound], in data set [1], the “benefit in patients with acute pancreatitis” value (“benefit in patients” for short) is given as “failed to show any benefit”.

Consider `COc1ccc2c3c1O[C@H]1C(=O)CC[C@H]4[C@@H](C2)N(C)CC[C@]314` [hydrocodone, reference compound], for which, in data set [2] (Example 2, May 7, 2008, pain described as 10/10, relieved with hydrocodone taken at home, before GSH), the pain is listed as 5 /10.

In the case of `[Se]` [selenium], in data set [1], the “benefit in patients” value was “failed to show any benefit”.

With `NC(CCC(=O)NC(CS)C(=O)NCC(=O)O)C(=O)O` (stereo not shown) [GSH, 2-amino-4-[[1-(carboxymethylcarbamoyl)-2-sulfanyl-ethyl]carbamoyl]butanoic acid], the Lipase stood at 161 in data set [3] (setting [9]); 132 in data set [3] (May 9, 2008); 30 in data set [5] (Jun. 27, 2008); 39 in data set [5] (Nov. 5, 2007); 108 in data set [5] (setting [10]); 64 in data set [5] (setting [11]). Also, the Lipase is on record as 112 in data set [6] (setting [12]); 152 in data set [6] (Jun. 5, 2008); 89 in data set [6] (Jun. 16, 2008); 60 in data set [6] (Jun. 25, 2008); 150 in data set [6] (setting [13]); 150 in data set [6] (setting [14]). The Amylase was 115 in data set [3] (setting [9]); 105 in data set [3] (May 9, 2008); 68 in data set [5] (Jun. 27, 2008); 62 in data set [5] (Nov. 5, 2007); 90 in data set [5] (setting [10]); 79 in data set [5] (setting [11]). The Amylase in data set [6] (setting [12]) is 95; in data set [6] (Jun. 5, 2008), 128; in data set [6] (Jun. 16, 2008), 75; in data set [6] (Jun. 25, 2008), 64; in data set [6] (setting [13]), 105; in data set [6] (setting [14]), 124. In addition, the “Pain Score” value in data set [2] (Example 2, person, GSH (1 gm) IV, May 7, 2008, pain medication hydrocodone) is recorded as 5 of 10; in data set [2] (Example 2, May 9, 2008, follow up visit only, no infusion given, pain medication None) it was 0 of 10; in data set [4] (Example 1, person, Sep. 28, 2007, pain medication hydrocodone) it was 8 of 10; in data set [4] (Example 1, Dec. 10, 2007, pain medication propoxyphene) it was 1 of 10; in data set [4] (Example 1, Dec. 17, 2007, pain medication None), 0 of 10; in data set [4] (Example 1, Jan. 3, 2008, pain medication None) it was 0 of 10. Also, the “Pain Score” value in data set [4] (Example 1, Nov. 12, 2007, pain medication propoxyphene) is recorded as 1 of 10; in data set [4] (Example 1, Oct. 10, 2007, pain medication propoxyphene), 5 of 10; in data set [4] (Example 1, Oct. 29, 2007, pain medication propoxyphene) it was 2 of 10; in data set [7] (Example 3, person, Jun. 3, 2008, pain medication hydrocodone) it was 5 of 10; in data set [7] (Example 3, Jun. 4, 2008, pain medication hydrocodone), 0 of 10; in data set [7] (Example 3, Jun. 5, 2008, pain medication hydrocodone) it was 2.5 of 10. In addition, the “Pain Score” value in data set [7] (Example 3, Jun. 6, 2008, pain medication hydrocodone) is 4.5 of 10; in data set [7] (Example 3, Jun. 9, 2008, pain medication hydrocodone), 3 of 10; in data set [7] (Example 3, Jun. 16, 2008, pain medication None) it was 0 of 10; in data set [7] (Example 3, Jun. 18, 2008, pain medication None) it was 0 of 10; in data set [7] (Example 3, Jun. 25, 2008, Back pain due to lifting furniture) it was 2 of 10. Further, the “pain and enzyme levels” value in data set [2] (Example 2, single dose of intravenous reduced L-glutathione) is reported as “responded to a single dose”. Further, in data set [1] (administration of glutathione), the “effect on multiple organ functions in patients with acute pancreatitis” value is “protective effect”. For the same compound, the “Pain reported by the patient” value in data set [4] (Example 1, within four months of initiating reduced L-glutathione therapy) is “absence of pain”. Also, the “amylase and lipase levels” value in data set [5] (during the course of treatment) was “significantly reduced”. The CRP in data set [6] (setting [12]) came to 7.84; in data set [6] (Jun. 5, 2008), 9.11; in data set [6] (Jun. 25, 2008), 3.97. Also, in data set [6] (within a month of intravenous L-glutathione reduced therapy), the “amylase, lipase and C-reactive protein levels” value was “reduction”. The pain entry in data set [7] (Example 3, within a month of intravenous L-glutathione reduced therapy) is reported as “significant decrease in pain”.

On to `CC(C)OC(=O)CNC(=O)[C@H](CS)NC(=O)CC[C@H](N)C(=O)O` [glutathione isopropyl ester], for which, in data set [8], the “toxicity LD 50 value” is “about 5.3 g/kg”.

Turning to `O=C1O[C@H]([C@@H](O)CO)C(O)=C1O` [vitamin C, reference compound], the “benefit in patients” value in data set [1] is on record as “failed to show any benefit”.
